Assay type in all cases: in vivo
In assay [1] the test system is Blumeria graminis f. sp. Tritici. Kind of assay: Test C: preventive spray on wheat seedlings, wheat powdery mildew disease rating. The conditions noted are these: 100 = 100% disease control, 0 = no control; for pest or weed control at 50 ppm: Blumeria graminis, 192 h. An excerpt:
(§1) General protocol for preparing test suspensions for Tests A-F: the test compounds were first dissolved in acetone in an amount equal to 3% of the final volume and then suspended at the desired concentration (in ppm) in acetone and purified water (50/50 mix by volume) containing 50 to 250 ppm of the surfactant PEG400 (polyhydric alcohol esters). The resulting test suspensions were then used in Tests A-F.
The test suspension was sprayed to the point of run-off on wheat seedlings. The following day the seedlings were inoculated with a spore dust of Blumeria graminis f. sp. Tritici, (also known as Erysiphe graminis f. sp. Tritici, the causal agent of wheat powdery mildew) and incubated in a growth chamber at 20° C. for 8 days, after which time visual disease ratings were made.
(§2) The test suspension was sprayed to the point of run-off on tomato seedlings. The following day the seedlings were inoculated with a spore suspension of Alternaria solani (the causal agent of tomato early blight) and incubated in a saturated atmosphere at 27° C. for 48 h, and then moved to a growth chamber at 20° C. for 3 days, after which time visual disease ratings were made. A rating of 100 indicates 100% disease control and a rating of 0 indicates no disease control (relative to the controls). A dash (-) indicates the compound was not tested.

The subject of a further assay is Alternaria solani. Kind of assay: Test F: preventive spray on tomato seedlings, tomato early blight disease rating. The conditions noted are these: 100 = 100% disease control, 0 = no control; for pest or weed control at 50 ppm: Alternaria solani, 120 h.
Text: as §1, §2

For assay [2], the system named is Puccinia recondita f. sp. Tritici. The experiment in a line: Test B: preventive spray on wheat seedlings, wheat leaf rust disease rating. The conditions noted are these: 100 = 100% disease control, 0 = no control; for pest or weed control at 50 ppm: Puccinia recondita, 192 h.
Text: as §1
The test solution was sprayed to the point of run-off on wheat seedlings. The following day the seedlings were inoculated with a spore suspension of Puccinia recondita f. sp. Tritici (the causal agent of wheat leaf rust) and incubated in a saturated atmosphere at 20° C. for 24 h, and then moved to a growth chamber at 20° C. for 7 days, after which time disease ratings were made.
as §2

Another assay concerns Zymoseptoria tritici. The experiment in a line: Test A: preventive spray on wheat seedlings, wheat leaf blotch disease rating. Conditions: 100 = 100% disease control, 0 = no control; for pest or weed control at 50 ppm: Zymoseptoria tritici, 456 h.
Text: as §1
The test solution was sprayed to the point of run-off on wheat seedlings. The following day the seedlings were inoculated with a spore suspension of Zymoseptoria tritici (the causal agent of wheat leaf blotch) and incubated in a saturated atmosphere at 24° C. for 48 h, and then moved to a growth chamber at 20° C. for 17 days, after which time disease ratings were made. […]

The subject of the next assay is Phakopsora pachyrhizi. The experiment in a line: Test D: preventive spray on soybean seedlings, Asian soybean rust disease rating. Conditions: 100 = 100% disease control, 0 = no control; for pest or weed control at 50 ppm: Phakopsora pachyrhizi, 216 h.
Text: as §1
The test solution was sprayed to the point of run-off on soybean seedlings. The following day the seedlings were inoculated with a spore suspension of Phakopsora pachyrhizi (the causal agent of Asian soybean rust) and incubated in a saturated atmosphere at 22° C. for 24 h and then moved to a growth chamber at 22° C. for 8 days, after which time visual disease ratings were made.
as §2

The next assay concerns Botrytis cinerea. The experiment in a line: Test E: preventive spray on tomato seedlings, tomato Botrytis disease rating. Conditions: 100 = 100% disease control, 0 = no control; for pest or weed control at 50 ppm: Botrytis cinerea, 120 h.
Text: as §1
The test suspension was sprayed to the point of run-off on tomato seedlings. The following day the seedlings were inoculated with a spore suspension of Botrytis cinerea (the causal agent of tomato Botrytis) and incubated in a saturated atmosphere at 20° C. for 48 h, and then moved to a growth chamber at 24° C. for 3 days, after which time visual disease ratings were made.
as §2

As to `COc1cc(OC)cc(-n2c(-c3ccc(F)cc3Cl)c(Cl)c(=O)n(C)c2=O)c1` [Compound 38, 5-chloro-6-(2-chloro-4-fluorophenyl)-1-(3,5-dimethoxyphenyl)-3-methyl-2,4(1H,3H)-pyrimidinedione], the pest or weed control (as a rule, how far the test organism was held down) at 50 ppm was determined as 0% in assay [1] (50 ppm); 0% in the assay on Alternaria solani (50 ppm); 96% in assay [2] (50 ppm); 0% in the assay on Zymoseptoria tritici (50 ppm); 0% in the assay on Phakopsora pachyrhizi (50 ppm); 70% in the assay with Botrytis cinerea (50 ppm).

In the case of `COC(=O)c1nn(-c2cc(OC)ccc2Cl)c(-c2ccccc2F)c(Cl)c1=O` [Compound 122], the “Test C disease control rating” value in assay [1] (50 ppm) came to 0%. Also, the “Test F disease control rating” value in the assay with Alternaria solani (50 ppm) is recorded as 0%. For the same molecule, the “Test B disease control rating” value in assay [2] (50 ppm) turned out to be 19%. The “Test A disease control rating” value with Zymoseptoria tritici (50 ppm) was 0%. Moreover, in the assay on Phakopsora pachyrhizi (50 ppm), the “Test D disease control rating” value was 0%. In addition, in the assay with Botrytis cinerea (50 ppm), the “Test E disease control rating” value came out at 0%.

For `COc1cc(OC)c(Br)c(-c2nc(C)nc(C)c2-c2ccc(F)cc2Cl)c1` [Compound 59, 4-(2-bromo-3,5-dimethoxyphenyl)-2,6-dimethyl-5-(2-chloro-4-fluorophenyl)pyrimidine], the pest or weed control at 50 ppm stood at 100% in assay [1] (50 ppm); 98% in the assay on Alternaria solani (50 ppm); 100% in assay [2] (50 ppm); 100% in the assay on Zymoseptoria tritici (50 ppm); 100% with Phakopsora pachyrhizi (50 ppm); 88% in the assay with Botrytis cinerea (50 ppm).

For the molecule `COc1cc(OC)c(Cl)c(-n2nc(NC(=O)OC(C)(C)C)c(=O)c(C)c2-c2ccc(F)cc2Cl)c1` [Compound 86], the “Test C disease control rating” value in assay [1] (250 ppm) came to 0%. For the same molecule, the “Test F disease control rating” value with Alternaria solani (250 ppm) was 0%. Moreover, the “Test B disease control rating” value in assay [2] (250 ppm) worked out at 98%. Besides, in the assay on Zymoseptoria tritici (250 ppm), the “Test A disease control rating” value was found to be 83%. In addition, the “Test D disease control rating” value in the assay with Phakopsora pachyrhizi (250 ppm) is 0%. The “Test E disease control rating” value in the assay with Botrytis cinerea (250 ppm) amounted to 43%.

In the case of `Cc1c(-c2ccc(F)cc2Cl)c(-c2cc(Br)sc2Br)nn(C)c1=O` [Compound 13], the “Test C disease control rating” value in assay [1] (50 ppm) came to 73%. In the assay on Alternaria solani (50 ppm), the “Test F disease control rating” value was 0%. In addition, the “Test B disease control rating” value in assay [2] (50 ppm) turned out to be 80%. The “Test A disease control rating” value in the assay on Zymoseptoria tritici (50 ppm) is recorded as 99%. Moreover, the “Test D disease control rating” value in the assay with Phakopsora pachyrhizi (50 ppm) came out at 0%. Besides, in the assay with Botrytis cinerea (50 ppm), the “Test E disease control rating” value is on record as 90%.

For the molecule `Cn1nc(-c2ccsc2)c(-c2c(F)cccc2F)cc1=O` [Compound 1], in assay [1] (250 ppm), the “Test C disease control rating” value is 0%. In the assay on Alternaria solani (250 ppm), the “Test F disease control rating” value is given as 0%. Also, in assay [2] (250 ppm), the “Test B disease control rating” value amounted to 0%. Moreover, the “Test A disease control rating” value in the assay on Zymoseptoria tritici (250 ppm) worked out at 0%. The “Test D disease control rating” value in the assay with Phakopsora pachyrhizi (250 ppm) is listed as 65%. For the same molecule, in the assay with Botrytis cinerea (250 ppm), the “Test E disease control rating” value is given as 0%.

With `COc1cc(OC)cc(-c2cc(C#N)c(=O)n(N)c2-c2c(F)cc(F)cc2F)c1` [Compound 153], the “Test C disease control rating” value in assay [1] (50 ppm) worked out at 0%. For the same molecule, in the assay on Alternaria solani (50 ppm), the “Test F disease control rating” value is reported as 0%. In addition, the “Test B disease control rating” value in assay [2] (50 ppm) amounted to 80%. Besides, the “Test A disease control rating” value in the assay on Zymoseptoria tritici (50 ppm) is given as 0%. Besides, the “Test D disease control rating” value in the assay with Phakopsora pachyrhizi (50 ppm) amounted to 0%. For the same molecule, the “Test E disease control rating” value in the assay with Botrytis cinerea (50 ppm) is listed as 0%.

For the molecule `COc1cc(OC)cc(-c2nc(Cl)nc(C)c2-c2ccc(F)cc2Cl)c1` [Compound 47], in assay [1] (250 ppm), the “Test C disease control rating” value amounted to 98%. In the assay on Alternaria solani (250 ppm), the “Test F disease control rating” value came out at 92%. For the same molecule, in assay [2] (250 ppm), the “Test B disease control rating” value stood at 100%. In addition, the “Test A disease control rating” value in the assay on Zymoseptoria tritici (250 ppm) was found to be 100%. For the same molecule, the “Test D disease control rating” value with Phakopsora pachyrhizi (250 ppm) is on record as 98%. The “Test E disease control rating” value in the assay with Botrytis cinerea (250 ppm) was 93%.

Turning to `COc1cc(OC)cc(-c2nc(C)nc(OC)c2-c2ccc(F)cc2Cl)c1` [Compound 58], the “Test C disease control rating” value in assay [1] (50 ppm) worked out at 21%. In the assay with Alternaria solani (50 ppm), the “Test F disease control rating” value was determined as 0%. For the same molecule, the “Test B disease control rating” value in assay [2] (50 ppm) is 0%. In the assay on Zymoseptoria tritici (50 ppm), the “Test A disease control rating” value came out at 24%. The “Test D disease control rating” value with Phakopsora pachyrhizi (50 ppm) was 0%. In addition, the “Test E disease control rating” value in the assay on Botrytis cinerea (50 ppm) worked out at 79%.

The values above are taken from patent publication US20240308968A1, “FUNGICIDAL SUBSTITUTED HETEROCYCLES” (FMC Corporation, priority 2021, published 2024).
